Reference: patent US20230111310A1, “CARBOXYLIC ACID DERIVATIVE-SUBSTITUTED IMINO ARYL COMPOUND, PREPARATION METHOD THEREFOR, HERBICIDAL COMPOSITION AND USE THEREOF” (Qingdao Kingagroot Chemical Compound Co., Ltd., priority 2020, published 2023)

Columns and labels:
Assay in all cases: Weeding effect in post-emergence stage
Format in all cases: in vivo
Details in all cases: level of fresh weight growth control rate
Abutilon theophrasti = test system: Abutilon theophrasti
In short: (§1)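 Weeds were treated post-emergence at 2-3 leaves with compound doses from 7.5 up to 500 g/ha, formulated in acetone–Tween 80 with methyl oleate synergist. Efficacy was assessed as growth control after 3 weeks.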

Alopecurus japonicus = test system: Alopecurus japonicus
In short: as §1

Digitaria sanguinalis = test system: Digitaria sanguinalis
In short: as §1

Eleusine indica = test system: Eleusine indica
In short: as §1

Setaria viridis = test system: Setaria viridis
In short: as §1

Echinochloa crusgalli = test system: Echinochloa crusgalli
In short: as §1

Row | SMILES | Weeding effect in post-emergence stage, Abutilon theophrasti (Abutilon theophrasti; Dose 15 g/ha) | Weeding effect in post-emergence stage, Alopecurus japonicus (Alopecurus japonicus; Dose 15 g/ha) | Weeding effect in post-emergence stage, Digitaria sanguinalis (Digitaria sanguinalis; Dose 15 g/ha) | Weeding effect in post-emergence stage, Eleusine indica (Eleusine indica; Dose 15 g/ha) | Weeding effect in post-emergence stage, Setaria viridis (Setaria viridis; Dose 15 g/ha) | Weeding effect in post-emergence stage, Echinochloa crusgalli (Echinochloa crusgalli; Dose 15 g/ha) | also measured
1 | CCOC(=O)C(OC)O/N=C/c1cc(-n2c(=O)cc(C(F)(F)F)n(C)c2=O)c(F)cc1Cl (stereo not drawn) [Compound 322] | – | – | – | – | – | – | Weeding effect in post-emergence stage, Abutilon theophrasti (Abutilon theophrasti; Dose 120 g/ha): 5 (Level 5: growth control rate is above 85%); Weeding effect in post-emergence stage, Alopecurus japonicus (Alopecurus japonicus; Dose 120 g/ha): 5 (Level 5: growth control rate is above 85%); Weeding effect in post-emergence stage, Digitaria sanguinalis (Digitaria sanguinalis; Dose 120 g/ha): 5 (Level 5: growth control rate is above 85%); Weeding effect in post-emergence stage, Eleusine indica (Eleusine indica; Dose 120 g/ha): 5 (Level 5: growth control rate is above 85%); Weeding effect in post-emergence stage, Setaria viridis (Setaria viridis; Dose 120 g/ha): 5 (Level 5: growth control rate is above 85%); Weeding effect in post-emergence stage, Echinochloa crusgalli (Echinochloa crusgalli; Dose 120 g/ha): 5 (Level 5: growth control rate is above 85%)
2 | CCOC(O/N=C/c1cc(-n2c(=O)cc(C(F)(F)F)n(C)c2=O)c(F)cc1Cl)C(=O)OC (stereo not drawn) [Compound 331] | 5 (Level 5: growth control rate is above 85%) | 5 (Level 5: growth control rate is above 85%) | 5 (Level 5: growth control rate is above 85%) | 5 (Level 5: growth control rate is above 85%) | 5 (Level 5: growth control rate is above 85%) | 5 (Level 5: growth control rate is above 85%) | –
3 | COCC(O/N=C/c1cc(-n2c(=O)cc(C(F)(F)F)n(C)c2=O)c(F)cc1Cl)C(=O)OC (stereo not drawn) [Compound 333] | 5 (Level 5: growth control rate is above 85%) | 5 (Level 5: growth control rate is above 85%) | 5 (Level 5: growth control rate is above 85%) | 5 (Level 5: growth control rate is above 85%) | 5 (Level 5: growth control rate is above 85%) | 5 (Level 5: growth control rate is above 85%) | –
4 | COC(=O)C(O/N=C/c1cc(-n2c(=O)cc(C(F)(F)F)n(C)c2=O)c(F)cc1Cl)c1ccccc1 (stereo not drawn) [Compound 337] | 5 (Level 5: growth control rate is above 85%) | 5 (Level 5: growth control rate is above 85%) | 5 (Level 5: growth control rate is above 85%) | 5 (Level 5: growth control rate is above 85%) | 5 (Level 5: growth control rate is above 85%) | 5 (Level 5: growth control rate is above 85%) | –
5 | COC(=O)C(C)O/N=C/c1cc(-n2c(=O)cc(C(F)(F)F)n(C)c2=O)c(F)cc1C(F)(F)F (stereo not drawn) [Compound 342] | 5 (Level 5: growth control rate is above 85%) | 4 (Level 4: growth control rate is greater than or equal to 60% and less than 85%) | 5 (Level 5: growth control rate is above 85%) | 5 (Level 5: growth control rate is above 85%) | 5 (Level 5: growth control rate is above 85%) | 5 (Level 5: growth control rate is above 85%) | –
6 | COC(=O)C(C)O/N=C/c1cc(-n2c(=O)cc(C(F)(F)F)n(C)c2=O)c(F)cc1C#N (stereo not drawn) [Compound 344] | 5 (Level 5: growth control rate is above 85%) | 5 (Level 5: growth control rate is above 85%) | 5 (Level 5: growth control rate is above 85%) | 5 (Level 5: growth control rate is above 85%) | 5 (Level 5: growth control rate is above 85%) | 5 (Level 5: growth control rate is above 85%) | –
7 | COC(=O)C(C)O/N=C/c1cc(-n2c(=O)cc(C(F)(F)F)n(C)c2=S)c(F)cc1Cl (stereo not drawn) [Compound 347] | – | – | – | – | – | – | Weeding effect in post-emergence stage, Abutilon theophrasti (Abutilon theophrasti; Dose 30 g/ha): 5 (Level 5: growth control rate is above 85%); Weeding effect in post-emergence stage, Alopecurus japonicus (Alopecurus japonicus; Dose 30 g/ha): 5 (Level 5: growth control rate is above 85%); Weeding effect in post-emergence stage, Digitaria sanguinalis (Digitaria sanguinalis; Dose 30 g/ha): 5 (Level 5: growth control rate is above 85%); Weeding effect in post-emergence stage, Eleusine indica (Eleusine indica; Dose 30 g/ha): 5 (Level 5: growth control rate is above 85%); Weeding effect in post-emergence stage, Setaria viridis (Setaria viridis; Dose 30 g/ha): 5 (Level 5: growth control rate is above 85%); Weeding effect in post-emergence stage, Echinochloa crusgalli (Echinochloa crusgalli; Dose 30 g/ha): 5 (Level 5: growth control rate is above 85%)
